Results reported in patent publication US8536193B2, “Inhibitors of AKT activity” (Merck Sharp & Dohme Corp., priority 2008, dated 2013).

What was measured:
Akt1 kinase = Akt1 kinase (Homo sapiens (Human), UniProt P31749); test: Akt kinase assay (HTRF, GSK-derived biotinylated peptide substrate); format: biochemical
Description: (§1) Activated Akt isoforms and pleckstrin homology domain deletion constructs were assayed utilizing a GSK-derived biotinylated peptide substrate. The extent of peptide phosphorylation was determined by Homogeneous Time Resolved Fluorescence (HTRF) using a lanthanide chelate (Lance)-coupled monoclonal antibody specific for the phosphopeptide in combination with a streptavidin-linked allophycocyanin (SA-APC) fluorophore which will bind to the biotin moiety on the peptide. When the Lance and APC are in proximity (i.e. bound to the same phosphopeptide molecule), a non-radiative energy transfer takes place from the Lance to the APC, followed by emission of light from APC at 665 nm.
(§2) Materials Required for the Assay:
(§3) A. Activated Akt isozyme or pleckstrin homology domain deleted construct
(§4) B. Akt peptide substrate: GSK3α (S21) Peptide #3928 biotin-[…] (SEQ.ID.NO.:15), Macromolecular Resources.
(§5) C. Lance labeled anti-phospho GSK3α monoclonal antibody (Cell Signaling Technology, clone #27).
(§6) D. SA-APC (Prozyme catalog no. PJ25S lot #896067).
(§7) E. Microfluor®B U Bottom Microtiter Plates (Dynex Technologies, Catalog no. 7205).
(§8) F. Discovery® HTRF Microplate Analyzer, Packard Instrument Company.
(§9) G. 100× Protease Inhibitor Cocktail (PIC): 1 mg/mL benzamidine, 0.5 mg/mL pepstatin, 0.5 mg/mL leupeptin, 0.5 mg/mL aprotinin.
(§10) H. 10× Assay Buffer: 500 mM HEPES, pH 7.5, 1% PEG, […], 1 mM EGTA, 1% BSA, 20 mM θ-Glycerol phosphate.
(§11) I. Quench Buffer: 50 mM HEPES pH 7.3, 16.6 mM EDTA, 0.1% BSA, 0.1% Triton X-100, 0.17 nM Lance labeled monoclonal antibody clone #27, 0.0067 mg/mL SA-APC
(§12) J. ATP/MgCl2 working solution: 1× Assay buffer, 1 mM DTT, 1×PIC, 125 mM KCl, 5% Glycerol, 25 mM MgCl2, 375 μM ATP
(§13) K. Enzyme working solution: 1× Assay buffer, 1 mM DTT, 1× PIC, 5% Glycerol, active Akt. The final enzyme concentrations were selected so that the assay was in a linear response range.
(§14) L. Peptide working solution: 1× Assay buffer, 1 mM DTT, 1× PIC, 5% Glycerol, 2 μM GSK3 biotinylated peptide #3928
(§15) The reaction is assembled by adding 16 μl, of the ATP/MgCl2 working solution to the appropriate wells of a 96-well microtiter plate. Inhibitor or vehicle (1.0 μL) is added followed by 10 μL of peptide working solution. The reaction is started by adding 13 μL of the enzyme working solution and mixing. The reaction is allowed to proceed for 50 min and then stopped by the addition of 60 μl, HTRF quench buffer. The stopped reactions were incubated at room temperature for at least 30 min and then read on the Discovery instrument.

Akt2 kinase = Akt2 kinase (Homo sapiens (Human), UniProt P31751); test: as above; format: biochemical
Akt2 kinase, sequence (P31751 whole entry): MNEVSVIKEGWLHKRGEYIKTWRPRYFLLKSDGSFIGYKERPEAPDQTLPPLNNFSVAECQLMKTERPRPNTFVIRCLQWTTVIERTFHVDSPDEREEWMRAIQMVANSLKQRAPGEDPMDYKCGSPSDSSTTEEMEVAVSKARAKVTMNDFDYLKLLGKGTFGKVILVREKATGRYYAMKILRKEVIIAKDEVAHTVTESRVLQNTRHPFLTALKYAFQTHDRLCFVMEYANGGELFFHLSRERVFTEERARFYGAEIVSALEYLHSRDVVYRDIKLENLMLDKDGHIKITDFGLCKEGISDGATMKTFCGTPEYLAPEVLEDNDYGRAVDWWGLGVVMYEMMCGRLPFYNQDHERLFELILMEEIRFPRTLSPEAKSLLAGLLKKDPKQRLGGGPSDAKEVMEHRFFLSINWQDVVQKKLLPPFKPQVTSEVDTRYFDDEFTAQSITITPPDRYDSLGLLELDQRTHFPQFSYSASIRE
Description: as §1, §2, §3, §4, §5, §6, §7, §8, §9, §10, §11, §12, §13, §14, §15

Akt1 kinase, sequence (P31749 whole entry, the tested form may be a part, canonical isoform): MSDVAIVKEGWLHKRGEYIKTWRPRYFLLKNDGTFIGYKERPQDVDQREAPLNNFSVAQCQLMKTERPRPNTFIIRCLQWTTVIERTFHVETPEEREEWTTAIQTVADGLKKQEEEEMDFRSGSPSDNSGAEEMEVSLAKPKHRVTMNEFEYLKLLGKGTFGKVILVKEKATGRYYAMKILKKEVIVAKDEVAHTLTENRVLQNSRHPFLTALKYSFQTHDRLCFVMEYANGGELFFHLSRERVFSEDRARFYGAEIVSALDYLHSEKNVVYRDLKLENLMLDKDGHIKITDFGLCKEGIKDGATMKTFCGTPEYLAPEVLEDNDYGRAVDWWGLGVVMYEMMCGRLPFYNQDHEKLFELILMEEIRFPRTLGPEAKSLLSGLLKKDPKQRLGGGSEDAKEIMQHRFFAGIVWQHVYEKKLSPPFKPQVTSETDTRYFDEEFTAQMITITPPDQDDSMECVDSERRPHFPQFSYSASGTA

Row | SMILES | IC50 (Akt1 kinase) [nM] | IC50 (Akt2 kinase) [nM]
1 | O=C(Cc1cccnc1)NC1(c2ccc(-c3nc4ccc5nnc(O)n5c4cc3-c3ccccc3)cc2)CCC1 [EXAMPLE 1-9, N-{1-[4-(1-hydroxy-8-phenyl[1,2,4]triazolo[4,3-a]-1,5-naphthylidin-7-yl)phenyl]cyclobutyl}-2-(3-pyridinyl)acetamide] | 39 | 200
2 | NC1(c2ccc(-c3nc4ccc5nnc(-c6ccccc6)n5c4cc3-c3ccccc3)cc2)CCC1 [EXAMPLE 2-1, 1-[4-(1,8-diphenyl[1,2,4]triazolo[4,3-a]-1,5-naphthylidin-7-yl)phenyl]cyclobutanamine] | 2.3 | 32
3 | Nc1nnc2ccc3nc(-c4ccc(C5(N)CCC5)cc4)c(-c4ccccc4)cc3n12 [EXAMPLE 3-1, 7-[4-(1-aminocyclobutyl)phenyl]-8-phenyl[1,2,4]triazolo[4,3-a]-1,5-naphthylidin-1-amine] | 6.1 | 24
4 | Cc1nnc2ccc3nc(-c4ccc(C5(N)CCC5)cc4)c(-c4ccccc4)cc3n12 [EXAMPLE 4-1, 1-[4-(1-methyl-8-phenyl[1,2,4]triazolo[4,3-a]-1,5-naphthylidin-7-yl)phenyl]cyclobutanamine] | 8.2 | 50
5 | NC1(c2ccc(-c3nc4ccc5nnc(-c6ccccc6)n5c4cc3-c3ccccc3)cc2)CC(F)(F)C1 [EXAMPLE 5-12, 1-[4-(1,8-diphenyl[1,2,4]triazolo[4,3-a]-1,5-naphthyridin-7-yl)phenyl]-3,3-difluorocyclobutanamine] | 10 | 140
6 | CC1(O)CC(N)(c2ccc(-c3nc4ccc5nnc(-c6nnc[nH]6)n5c4cc3-c3ccccc3)cc2)C1 (stereo not drawn) [EXAMPLE 7-26, cis-3-amino-1-methyl-3-{4-[8-phenyl-1-(4H-1,2,4-triazol-3-yl)[1,2,4]triazolo[4,3-a][1,5]naphthyridin-7-yl]phenyl}cyclobutanol] | 0.7 | 12.6
7 | C[C@]1(O)C[C@@](N)(c2ccc(-c3nc4ccc5nnc(C(F)F)n5c4cc3-c3ccccc3)cc2)C1 [EXAMPLE 10-4, trans-3-amino-3-{4-[1-(difluoromethyl)-8-phenyl[1,2,4]triazolo[4,3-a]-1,5-naphthyridin-7-yl]phenyl}-1-methylcyclobutanol] | 0.38 | 1.7
8 | NC1(c2ccc(-c3nc4ccc5nnc(C(F)F)n5c4cc3-c3ccccc3)cc2)CC(O)(C2CC2)C1 (stereo not drawn) [EXAMPLE 10-5, trans-3-amino-1-cyclopropyl-3-{4-[1-(difluoromethyl)-8-phenyl-[1,2,4]triazolo[4,3-a]-1,5-naphthyridin-7-yl]phenyl}cyclobutanol] | 0.34 | 2.2
